Measured values reported in patent US20040002141A1, “Methods and compositions for propagating vectors containing toxic cDNAs and ion channel assay systems” (priority 2002, published 2004).

How the values were obtained:
αβγENaC channels = target: T1, αβγENaC channels (Rattus norvegicus, UniProt P37089+P37090+P37091); settings: McNicholas and Canessa, 1997; cited from earlier work
T1 sequence (P37089 1-698): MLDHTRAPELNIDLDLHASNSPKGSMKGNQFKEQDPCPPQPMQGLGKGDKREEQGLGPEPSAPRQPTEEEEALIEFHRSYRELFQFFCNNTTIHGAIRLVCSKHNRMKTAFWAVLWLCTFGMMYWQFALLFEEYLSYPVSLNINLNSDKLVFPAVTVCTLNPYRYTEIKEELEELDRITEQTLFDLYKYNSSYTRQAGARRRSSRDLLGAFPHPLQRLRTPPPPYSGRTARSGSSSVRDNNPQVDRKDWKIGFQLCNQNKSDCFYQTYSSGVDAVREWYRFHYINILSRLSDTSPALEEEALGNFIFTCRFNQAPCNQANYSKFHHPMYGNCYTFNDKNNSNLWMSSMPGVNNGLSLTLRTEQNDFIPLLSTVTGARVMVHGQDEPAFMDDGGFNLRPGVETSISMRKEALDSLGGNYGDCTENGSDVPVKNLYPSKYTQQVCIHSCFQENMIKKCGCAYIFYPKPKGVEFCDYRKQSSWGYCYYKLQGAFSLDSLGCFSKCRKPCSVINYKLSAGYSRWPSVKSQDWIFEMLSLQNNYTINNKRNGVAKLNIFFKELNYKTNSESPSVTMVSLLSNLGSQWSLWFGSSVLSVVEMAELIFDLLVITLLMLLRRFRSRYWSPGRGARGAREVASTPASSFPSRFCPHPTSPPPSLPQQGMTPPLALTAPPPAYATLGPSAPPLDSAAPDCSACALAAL
T1 sequence (P37090 1-638): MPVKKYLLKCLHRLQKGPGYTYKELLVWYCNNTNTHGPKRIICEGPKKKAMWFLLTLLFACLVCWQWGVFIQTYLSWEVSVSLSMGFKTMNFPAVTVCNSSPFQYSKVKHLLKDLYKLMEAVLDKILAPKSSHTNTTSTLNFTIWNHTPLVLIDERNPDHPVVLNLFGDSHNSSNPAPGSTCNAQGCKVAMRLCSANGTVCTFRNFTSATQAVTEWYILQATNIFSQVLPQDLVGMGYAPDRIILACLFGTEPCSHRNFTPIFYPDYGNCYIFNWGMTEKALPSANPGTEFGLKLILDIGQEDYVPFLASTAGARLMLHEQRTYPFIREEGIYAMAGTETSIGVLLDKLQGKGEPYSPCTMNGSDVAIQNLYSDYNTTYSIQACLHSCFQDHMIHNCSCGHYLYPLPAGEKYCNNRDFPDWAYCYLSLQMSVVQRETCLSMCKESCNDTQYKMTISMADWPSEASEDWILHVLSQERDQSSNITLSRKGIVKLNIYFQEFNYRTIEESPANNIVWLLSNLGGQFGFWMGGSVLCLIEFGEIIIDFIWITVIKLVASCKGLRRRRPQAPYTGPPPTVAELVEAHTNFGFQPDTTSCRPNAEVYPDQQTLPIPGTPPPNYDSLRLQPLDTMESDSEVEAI
T1 sequence (P37091 1-650): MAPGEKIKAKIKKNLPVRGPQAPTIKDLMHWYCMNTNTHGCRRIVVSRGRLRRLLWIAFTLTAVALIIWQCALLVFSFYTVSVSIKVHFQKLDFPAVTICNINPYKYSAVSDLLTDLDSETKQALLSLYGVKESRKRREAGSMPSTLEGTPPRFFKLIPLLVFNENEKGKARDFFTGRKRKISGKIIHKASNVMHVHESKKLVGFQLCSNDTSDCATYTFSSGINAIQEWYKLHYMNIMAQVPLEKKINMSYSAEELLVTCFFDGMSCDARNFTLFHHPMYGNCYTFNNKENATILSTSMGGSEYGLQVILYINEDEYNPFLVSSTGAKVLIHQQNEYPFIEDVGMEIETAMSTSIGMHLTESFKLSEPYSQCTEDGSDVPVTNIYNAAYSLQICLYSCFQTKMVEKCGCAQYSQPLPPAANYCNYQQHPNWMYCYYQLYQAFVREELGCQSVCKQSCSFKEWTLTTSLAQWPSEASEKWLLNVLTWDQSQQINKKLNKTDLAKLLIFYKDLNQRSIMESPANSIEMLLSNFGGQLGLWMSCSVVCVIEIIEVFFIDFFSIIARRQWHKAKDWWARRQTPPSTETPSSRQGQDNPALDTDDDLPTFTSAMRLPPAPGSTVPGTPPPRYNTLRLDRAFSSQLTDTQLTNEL

UNC-105d = settings: García-Añoveros et al., 1998; cited from earlier work
[1] = target: T2, MEC-4d, MEC-10d and MEC-2 (Caenorhabditis elegans, UniProt P24612+P34886, A673T/A713T); test: Amiloride dose-response, two-electrode voltage clamp in Xenopus oocytes co-expressing MEC-4d, MEC-10d and MEC-2; type: cell-based; settings: in the presence of MEC-10d
T2 construct: Plasmids containing full-length degenerin cDNAs are toxic to standard E. coli strains; expressed in transfected cells; host or cells: Xenopus laevis oocytes injected with cRNA
Description: (§1) Oocyte Expression & Electrophysiology. Capped RNAs (“cRNAs”) were synthesized (T7 mMESSAGE mMACHINE™ kit, Ambion, Austin, Tex.), purified, and quantified spectroscopically. Xenopus laevis oocytes were harvested and injected with 10 ng of each cRNA, except for oocytes co-expressing only MEC-4d and MEC-2(114-363), which were injected with 10 ng of the former and 20 ng of the latter. Oocytes were maintained in L-15 oocyte medium containing 100 μg/mL gentamicin (Cell & Molecular Technologies, Philipsburg, N.J.) at 16-18° C.
(§2) Membrane potential and current were measured 4-10 days after cRNA injection using a two-electrode voltage clamp (Warner OC-725C) at 22-25° C. […]
(§3) Analog signals were filtered at 200 Hz and sampled at 1-2 kHz (ITC-16, Instrutech, Great Neck, N.Y.); a 60 Hz notch filter was used to minimize line noise. Average values are reported as mean±S.E.M. Curves were fit by a nonlinear least-squares method (IgorPro 4.01, Wavemetrics, Oswego, Oreg.); the standard deviation measured at each point provided the weighting function. […] Relative permeabilities were calculated from the difference in reversal potential measured in solutions containing Na^+ and each test ion using the Goldman-Hodgkin-Katz equation (Hille, 2001, In: Ion Channels of Excitable Membranes, Sinaur Associates, Inc., Sunderland, Mass.).

MEC-4d and MEC-2 = target: T3, MEC-4d and MEC-2 (Caenorhabditis elegans, UniProt P24612, A713T); test: Amiloride dose-response, two-electrode voltage clamp in Xenopus oocytes co-expressing MEC-4d and MEC-2; type: cell-based; settings: in the absence of MEC-10d; without MEC-2(114-363)
T3 construct: Plasmids containing full-length degenerin cDNAs are toxic to standard E. coli strains; expressed in transfected cells; host or cells: Xenopus laevis oocytes injected with cRNA
Description: as §1, §2, §3

T2 sequence (P34886 whole entry A673T): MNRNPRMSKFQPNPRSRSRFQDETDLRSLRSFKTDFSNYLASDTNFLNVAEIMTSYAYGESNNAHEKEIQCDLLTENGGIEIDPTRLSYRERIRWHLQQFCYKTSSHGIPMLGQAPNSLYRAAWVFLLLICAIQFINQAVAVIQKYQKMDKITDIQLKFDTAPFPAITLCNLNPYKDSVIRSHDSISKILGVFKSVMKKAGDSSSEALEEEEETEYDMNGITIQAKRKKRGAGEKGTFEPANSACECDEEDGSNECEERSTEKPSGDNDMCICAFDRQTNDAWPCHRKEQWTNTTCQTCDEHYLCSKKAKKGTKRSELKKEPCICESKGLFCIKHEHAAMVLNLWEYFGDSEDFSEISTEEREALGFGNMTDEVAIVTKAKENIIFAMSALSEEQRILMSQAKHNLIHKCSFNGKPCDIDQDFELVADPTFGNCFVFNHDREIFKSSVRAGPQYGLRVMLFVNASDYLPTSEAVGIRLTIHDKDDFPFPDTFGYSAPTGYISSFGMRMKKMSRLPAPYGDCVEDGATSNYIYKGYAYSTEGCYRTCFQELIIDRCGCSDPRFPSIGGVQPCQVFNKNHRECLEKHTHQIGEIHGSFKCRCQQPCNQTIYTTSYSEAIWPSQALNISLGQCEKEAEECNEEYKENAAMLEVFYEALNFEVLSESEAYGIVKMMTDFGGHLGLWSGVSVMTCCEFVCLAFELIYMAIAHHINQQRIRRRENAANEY
T2 sequence (P24612 whole entry A713T): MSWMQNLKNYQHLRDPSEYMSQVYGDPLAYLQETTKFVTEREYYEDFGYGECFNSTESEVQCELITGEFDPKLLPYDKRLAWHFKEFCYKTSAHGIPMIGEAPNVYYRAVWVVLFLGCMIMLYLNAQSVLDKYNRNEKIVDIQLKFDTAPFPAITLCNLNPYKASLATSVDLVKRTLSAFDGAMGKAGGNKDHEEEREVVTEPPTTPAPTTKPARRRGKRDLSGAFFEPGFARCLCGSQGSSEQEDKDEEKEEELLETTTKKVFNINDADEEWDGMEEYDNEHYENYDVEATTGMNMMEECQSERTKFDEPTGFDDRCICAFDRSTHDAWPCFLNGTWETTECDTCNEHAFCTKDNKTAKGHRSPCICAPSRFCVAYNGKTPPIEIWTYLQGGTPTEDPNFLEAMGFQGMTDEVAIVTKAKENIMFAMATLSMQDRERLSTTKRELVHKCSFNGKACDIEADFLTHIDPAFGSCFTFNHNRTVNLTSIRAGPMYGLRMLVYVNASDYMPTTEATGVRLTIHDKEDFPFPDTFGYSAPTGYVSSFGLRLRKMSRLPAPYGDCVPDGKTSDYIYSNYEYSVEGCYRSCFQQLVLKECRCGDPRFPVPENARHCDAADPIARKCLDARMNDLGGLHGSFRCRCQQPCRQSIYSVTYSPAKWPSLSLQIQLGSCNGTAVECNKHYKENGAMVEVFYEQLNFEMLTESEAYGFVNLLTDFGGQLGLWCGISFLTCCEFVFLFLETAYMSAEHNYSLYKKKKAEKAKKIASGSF
T3 sequence (Q27433 whole entry): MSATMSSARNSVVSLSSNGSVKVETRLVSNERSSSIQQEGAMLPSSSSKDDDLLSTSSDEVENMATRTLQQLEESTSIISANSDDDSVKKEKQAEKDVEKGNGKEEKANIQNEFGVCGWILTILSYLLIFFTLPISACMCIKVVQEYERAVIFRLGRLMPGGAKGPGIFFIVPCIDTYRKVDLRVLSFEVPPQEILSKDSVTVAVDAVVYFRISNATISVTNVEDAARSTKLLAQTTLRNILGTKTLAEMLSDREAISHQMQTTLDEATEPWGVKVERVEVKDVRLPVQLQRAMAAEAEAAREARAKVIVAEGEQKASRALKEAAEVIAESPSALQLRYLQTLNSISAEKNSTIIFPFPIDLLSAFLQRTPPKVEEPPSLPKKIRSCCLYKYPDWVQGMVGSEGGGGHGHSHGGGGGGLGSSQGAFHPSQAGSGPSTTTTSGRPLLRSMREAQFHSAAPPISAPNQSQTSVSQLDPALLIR
T3 sequence (P24612 whole entry A713T): as the sequence (P24612 whole entry A713T) above

Structure (SMILES): N=C(N)NC(=O)c1nc(Cl)c(N)nc1N [amiloride]
- δ, voltage-dependence of amiloride blockade (αβγENaC channels): 0.15
- δ, voltage-dependence of amiloride blockade (UNC-105d): 0.65-0.68
- δ, voltage-dependence of amiloride blockade (Woodhull model fit) [1]: 0.52
- δ, voltage-dependence of amiloride blockade (Woodhull model fit) (MEC-4d and MEC-2): 0.63
